In patent US9839642B2, “Beta-tetrazolyl-propionic acids as metallo-beta-lactamase inhibitors” (priority 2014, dated 2017):

Experiments:
[1] = system: Escherichia coli expressing NDM-1 (CLB30016); experiment: Antibiotic potentiation activity: synergistic concentration (MITC95) with imipenem, growth by OD600; assay type: cell-based; details: E. coli CLB30016 (NDM-1), 95% inhibition of growth
How it was run: (§1)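 Strains grown overnight at 35° C, resuspended in saline, diluted 1:100 into 1.1×CAMHB; imipenem at 1 μg/ml or 4 μg/ml with test compound 200 μM to 0.195 μM. Incubated 22 hours to 24 hours at 35° C, OD600 read; MITC95 is lowest compound concentration inhibiting 95% of growth.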

[2] = system: Klebsiella pneumoniae expressing VIM-1 (IHMA599644); experiment: as above; assay type: cell-based; details: K. pneumoniae IHMA599644 (VIM-1), 95% inhibition of growth
How it was run: as §1

[3] = system: Serratia marcescens expressing IMP-1 (CL5741); experiment: as above; assay type: cell-based; details: S. marcescens CL5741 (IMP-1), 95% inhibition of growth
How it was run: as §1

IMP-1 = IMP-1 (Serratia marcescens, UniProt P52699); experiment: Enzyme activity: determination of IC50, fluorescence assay with CCF2-FA substrate; assay type: biochemical; details: IMP-1 enzyme 2 pM, CCF2-FA 1.25 μM, 2 hours at 25° C.; read-out: IMP1 IC50
IMP-1, sequence (P52699 19-246, looked up, species assumed): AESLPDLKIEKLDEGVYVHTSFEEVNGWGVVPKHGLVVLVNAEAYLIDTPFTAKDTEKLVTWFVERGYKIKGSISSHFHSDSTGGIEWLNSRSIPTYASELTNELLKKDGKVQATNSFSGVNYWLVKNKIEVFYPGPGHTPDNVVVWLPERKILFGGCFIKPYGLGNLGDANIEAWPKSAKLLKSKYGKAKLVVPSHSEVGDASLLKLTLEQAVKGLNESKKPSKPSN
How it was run: (§2)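 Enzyme (1 pM NDM-1, 2 pM IMP-1, 30 pM VIM-1) incubated with inhibitor (20 to 0.00063 μM) and 1.25 μM CCF2-FA in 100 mM KH2PO4 pH 7, 0.005% Tween-20, 10 μM ZnSO4, 2 h at 25 °C. Fluorescence read at 460 nm (ex 405 nm); IC50 by 4-parameter fit.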

NDM-1 = NDM-1 (Klebsiella pneumoniae, UniProt C7C422); experiment: as above; assay type: biochemical; details: NDM-1 enzyme 1 pM, CCF2-FA 1.25 μM, 2 hours at 25° C.; read-out: NDM1 IC50
NDM-1, sequence (C7C422 29-270, looked up, species assumed): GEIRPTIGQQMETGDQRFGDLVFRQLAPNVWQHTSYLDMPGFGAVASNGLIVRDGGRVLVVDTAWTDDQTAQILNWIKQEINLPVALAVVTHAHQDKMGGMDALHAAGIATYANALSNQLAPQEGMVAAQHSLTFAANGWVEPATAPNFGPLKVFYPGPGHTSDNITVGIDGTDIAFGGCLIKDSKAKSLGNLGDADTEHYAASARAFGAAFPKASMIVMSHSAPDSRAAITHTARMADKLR
How it was run: as §2

VIM-1 = VIM-1 (Pseudomonas aeruginosa, UniProt A0A0F7KYQ8); experiment: as above; assay type: biochemical; details: VIM-1 enzyme 30 pM, CCF2-FA 1.25 μM, 2 hours at 25° C.; read-out: VIM1 IC50
How it was run: as §2

Compound | NDM1 EC30016 MITC95 [1] [µM] | VIM1 KP599644 MITC95 [2] [µM] | IMP1 SM5741 MITC95 [3] [µM] | IC50 (IMP-1) [nM] | IC50 (NDM-1) [nM] | IC50 (VIM-1) [nM]
CC(C)C[C@H](C(=O)O)[C@H](Cc1ccc(N2CCC3(CC2)CNC3)nc1)c1nnn[nH]1 [Example 308, (2S)-2-[(1S)-2-[6-(2,7-diazaspiro[3.5]non-7-yl)pyridin-3-yl]-1-(1H-tetrazol-5-yl)ethyl]-4-methylpentanoic acid] | 3.1 | 25 | 9.4 | 370 | 120 | 32
CC(C)C[C@H](C(=O)O)[C@H](Cc1ccc(N2CCCC(CO)C2)nc1)c1nnn[nH]1 (stereo partly drawn) [Example 309, (2S)-2-[(1S)-2-{6-[3-(hydroxymethyl)piperidin-1-yl]pyridin-3-yl}-1-(1H-tetrazol-5-yl)ethyl]-4-methylpentanoic acid] | 6.2 | 75 | 6.2 | 150 | 62 | 24
CC(C)C[C@H](C(=O)O)[C@H](Cc1ccc(N2CCC(N)C2)nc1)c1nnn[nH]1 (stereo partly drawn) [Example 310, (2S)-2-[(1S)-2-[6-(3-aminopyrrolidin-1-yl)pyridin-3-yl]-1-(1H-tetrazol-5-yl)ethyl]-4-methylpentanoic acid] | 4.7 | 12.5 | 25 | 1800 | 430 | 4.6
CNC(=O)C1CCCN(c2ccc(C[C@H](c3nnn[nH]3)[C@H](CC(C)C)C(=O)O)cn2)C1 (stereo partly drawn) [Example 311, (2S)-4-methyl-2-[(1S)-2-{6-[3-(methylcarbamoyl)piperidin-1-yl]pyridin-3-yl}-1-(1H-tetrazol-5-yl)ethyl] pentanoic acid] | 6.2 | 100 | 9.4 | 150 | 87 | 26
CC(C)C[C@H](C(=O)O)[C@H](Cc1ccc(N2CCC(CNS(C)(=O)=O)CC2)nc1)c1nnn[nH]1 [Example 312, (2S)-4-methyl-2-[(1S)-2-[6-(4-{[(methylsulfonyl)amino]methyl}piperidin-1-yl)pyridin-3-yl]-1-(1H-tetrazol-5-yl)ethyl]pentanoic acid] | 9.4 | 150 | 31 | 250 | 42 | 48
CC(C)C[C@H](C(=O)O)[C@H](Cc1ccc(N2CCC(O)C2)nc1)c1nnn[nH]1 (stereo partly drawn) [Example 313, (2S)-2-[(1S)-2-[6-(3-hydroxypyrrolidin-1-yl)pyridin-3-yl]-1-(1H-tetrazol-5-yl)ethyl]-4-methylpentanoic acid] | 1.6 | 12.5 | 12.5 | 360 | 75 | 3.8
CC(C)C[C@H](C(=O)O)[C@H](Cc1ccc(N2CCC(CO)CC2)nc1)c1nnn[nH]1 [Example 314, (2S)-2-[(1S)-2-{6-[4-(hydroxymethyl)piperidin-1-yl]pyridin-3-yl}-1-(1H-tetrazol-5-yl)ethyl]-4-methylpentanoic acid] | 6.2 | 75 | 12.5 | 190 | 49 | 16
CC(C)C[C@H](C(=O)O)[C@H](Cc1ccc(N2CCCC2CO)nc1)c1nnn[nH]1 (stereo partly drawn) [Example 315, (2S)-2-[(1S)-2-{6-[2-(hydroxymethyl)pyrrolidin-1-yl]pyridin-3-yl}-1-(1H-tetrazol-5-yl)ethyl]-4-methylpentanoic acid] | 3.1 | 38 | 6.2 | 61 | 67 | 6
CC(C)C[C@H](C(=O)O)[C@H](Cc1ccc(N[C@@H]2CC[C@H](N)C2)nc1)c1nnn[nH]1 [Example 316, (2S)-2-[(1S)-2-(6-{[(1R,3S)-3-aminocyclopentyl]amino}pyridin-3-yl)-1-(1H-tetrazol-5-yl)ethyl]-4-methylpentanoic acid] | 1.6 | 12.5 | 12.5 | 1200 | 450 | 22
CC(C)C[C@H](C(=O)O)[C@H](Cc1ccc(N[C@H]2CC[C@H](N)C2)nc1)c1nnn[nH]1 [Example 317, (2S)-2-[(1S)-2-(6-{[(1S,3S)-3-aminocyclopentyl]amino}pyridin-3-yl)-1-(1H-tetrazol-5-yl)ethyl]-4-methylpentanoic acid] | 1.6 | 18.8 | 12.5 | 1600 | 350 | 14
CC(C)C[C@H](C(=O)O)[C@H](Cc1ccc(NCCC(C)N)nc1)c1nnn[nH]1 (stereo partly drawn) [Example 318, (2S)-2-[(1S)-2-{6-[(3-aminobutyl)amino]pyridin-3-yl}-1-(1H-tetrazol-5-yl)ethyl]-4-methylpentanoic acid] | 1.6 | 12.5 | 18.8 | 2000 | 370 | 11
CC(C)C[C@H](C(=O)O)[C@H](Cc1ccc(NC2CNCc3ccccc32)nc1)c1nnn[nH]1 (stereo partly drawn) [Example 319, (2S)-4-methyl-2-[(1S)-2-[6-(1,2,3,4-tetrahydroisoquinolin-4-ylamino)pyridin-3-yl]-1-(1H-tetrazol-5-yl)ethyl]pentanoic acid] | 12.5 | 25 | 18.8 | 1000 | 350 | 13
CC(C)C[C@H](C(=O)O)[C@H](Cc1ccc(NCCC(N)C(F)(F)F)nc1)c1nnn[nH]1 (stereo partly drawn) [Example 320, (2S)-2-[(1S)-2-{6-[(3-amino-4,4,4-trifluorobutyl)amino]pyridin-3-yl}-1-(1H-tetrazol-5-yl)ethyl]-4-methylpentanoic acid] | 1.6 | 50 | 12.5 | 320 | 83 | 15
CC(C)C[C@H](C(=O)O)[C@H](Cc1ccc(NC2CCNC2)nc1)c1nnn[nH]1 (stereo partly drawn) [Example 321, (2S)-4-methyl-2-[(1S)-2-[6-(pyrrolidin-3-ylamino)pyridin-3-yl]-1-(1H-tetrazol-5-yl)ethyl]pentanoic acid] | 3.1 | 18.8 | 18.8 | 1600 | 440 | 5.1
CC(C)C[C@H](C(=O)O)[C@H](Cc1ccc(N2CCCC(C(C)(C)N)C2)nc1)c1nnn[nH]1 (stereo partly drawn) [Example 322, (2S)-2-[(1S)-2-{6-[3-(1-amino-1-methylethyl)piperidin-1-yl]pyridin-3-yl}-1-(1H-tetrazol-5-yl)ethyl]-4-methylpentanoic acid] | 18.8 | 50 | 25 | 550 | 340 | 11
CC(C)C[C@H](C(=O)O)[C@H](Cc1ccc(NCC2CNCCC2O)nc1)c1nnn[nH]1 (stereo partly drawn) [Example 323, (2S)-2-[(1S)-2-(6-{[(4-hydroxypiperidin-3-yl)methyl]amino}pyridin-3-yl)-1-(1H-tetrazol-5-yl)ethyl]-4-methylpentanoic acid] | 1.6 | 18.8 | 6.2 | 930 | 120 | 17
CC(C)C[C@H](C(=O)O)[C@H](Cc1ccc(N2CC(C)(CN)C2)nc1)c1nnn[nH]1 [Example 325, (2S)-2-[(1S)-2-{6-[3-(aminomethyl)-3-methylazetidin-1-yl]pyridin-3-yl}-1-(1H-tetrazol-5-yl)ethyl]-4-methylpentanoic acid] | 12.5 | 75 | 75 | 4400 | 1100 | 36
CC(C)C[C@H](C(=O)O)[C@H](Cc1ccc(N2CC(CCN)C2)nc1)c1nnn[nH]1 [Example 326, (2S)-2-[(1S)-2-{6-[3-(2-aminoethyl)azetidin-1-yl]pyridin-3-yl}-1-(1H-tetrazol-5-yl)ethyl]-4-methylpentanoic acid] | 50 | 6.2 | >200 | > 20000 | 6400 | 29
CC(C)C[C@H](C(=O)O)[C@H](Cc1ccc(N2CC(N)C2)nc1)c1nnn[nH]1 [Example 327, (2S)-2-[(1S)-2-[6-(3-aminoazetidin-1-yl)pyridin-3-yl]-1-(1H-tetrazol-5-yl)ethyl]-4-methylpentanoic acid] | 9.4 | 38 | 38 | 2600 | 470 | 17
